Test results published in ChEMBL document CHEMBL1155600, “Constituents of Boronia pinnata” (J Nat Prod, 2000).

What was measured:
[1] = Cytotoxicity against human Raji cells assessed as cell viability at 32 nmol by trypan blue assay
[2] = Cytotoxicity against human Raji cells assessed as cell viability at 0.32 nmol by trypan blue assay
[3] = Cytotoxicity against human Raji cells assessed as cell viability at 16 nmol by trypan blue assay
[4] = Cytotoxicity against human Raji cells assessed as cell viability at 3.2 nmol by trypan blue assay

COc1c2ccccc2nc2occc12 [DICTAMNINE]
viability at 32 nmol ([1]; raji): 60% | viability at 0.32 nmol ([2]; raji): > 80% | viability at 16 nmol ([3]; raji): > 80% | viability at 3.2 nmol ([4]; raji): > 80%

CC(C)=CCc1cc(/C=C/C=O)ccc1O
viability at 32 nmol ([1]; Raji cells): 60% | viability at 0.32 nmol ([2]; Raji cells): > 80% | viability at 16 nmol ([3]; Raji cells): > 80% | viability at 3.2 nmol ([4]; Raji cells): > 80%

OC/C=C/c1ccc2c(c1)OCO2
viability at 32 nmol ([1]; Raji cells): 70% | viability at 0.32 nmol ([2]; Raji cells): > 80% | viability at 16 nmol ([3]; Raji cells): > 80% | viability at 3.2 nmol ([4]; Raji cells): > 80%

COc1cc(=O)n(C)c2c(OC)cccc12
viability at 32 nmol ([1]; Raji cells): 60% | viability at 0.32 nmol ([2]; Raji cells): > 80% | viability at 16 nmol ([3]; Raji cells): > 80% | viability at 3.2 nmol ([4]; Raji cells): > 80%

COc1ccc2c(OC)c3ccoc3nc2c1 [EVOLITRINE]
viability at 32 nmol ([1]; Raji cells): 60% | viability at 0.32 nmol ([2]; Raji cells): > 80% | viability at 16 nmol ([3]; Raji cells): > 80% | viability at 3.2 nmol ([4]; Raji cells): > 80%

COc1cc2ccc(=O)oc2c2c1OC(C)(C)C=C2
viability at 32 nmol ([1]; Raji cells): 60% | viability at 0.32 nmol ([2]; Raji cells): > 80% | viability at 16 nmol ([3]; Raji cells): > 80% | viability at 3.2 nmol ([4]; Raji cells): > 80%

O=C(O)/C=C/c1ccc(O)cc1 [COUMARIC ACID]
viability at 32 nmol ([1]; Raji cells): 60% | viability at 0.32 nmol ([2]; Raji cells): > 80% | viability at 16 nmol ([3]; Raji cells): > 80% | viability at 3.2 nmol ([4]; Raji cells): > 80%

COc1cc(C=O)cc(OC)c1O [SYRINGALDEHYDE]
viability at 32 nmol ([1]; Raji cells): 60% | viability at 0.32 nmol ([2]; Raji cells): > 80% | viability at 16 nmol ([3]; Raji cells): > 80% | viability at 3.2 nmol ([4]; Raji cells): > 80%

COc1cc(/C=C/C(=O)O)ccc1OCC=C(C)C [BOROPINIC ACID]
viability at 32 nmol ([1]; Raji cells): 70% | viability at 0.32 nmol ([2]; Raji cells): > 80% | viability at 16 nmol ([3]; Raji cells): > 80% | viability at 3.2 nmol ([4]; Raji cells): > 80%

COc1ccc2c(OC)c(CC=C(C)C)c(=O)[nH]c2c1OC [PRESKIMMIANINE]
viability at 32 nmol ([1]; Raji cells): 60% | viability at 0.32 nmol ([2]; Raji cells): > 80% | viability at 16 nmol ([3]; Raji cells): > 80% | viability at 3.2 nmol ([4]; Raji cells): > 80%
